Experimental data published in US11819576B2, “Process for preparing nano-or microparticles comprising a carrier-polymer and one or more biologically active ingredients” (Evonik Operations GmbH, priority 2019, dated 2023).
≈ marks a conversion by molar mass, not a printed value.

What was measured:
physchem = details: 22 °C, organic solvent or mixture, thermodynamic from solid, Solubility in mg/ml
Protocol: 100 μl n-butanol was added and the dispersion was stirred at ˜300 to 500 rpm by a magnetic stirrer at 21-23° C. n-Butanol was added 10 μl wise.
100 μl water saturated n-butanol (achieved from example 4) was added and the dispersion was stirred at ˜300 to 500 rpm by a magnetic stirrer at 21-23° C. n-Butanol was added 10 μl wise.
100 μl 25% aqueous NaCl solution saturated n-butanol (achieved from example 6) was added and the dispersion was stirred at ˜300 to 500 rpm by a magnetic stirrer at 21-23° C. n-Butanol was added 10 μl wise.
31.35 mg efavirenz (Angene Intemational Limited, China) was weighed into a 10 ml glass vial containing a 1 cm magnetic bar. 50 μl n-butanol was added and the dispersion was stirred at ˜300 to 500 rpm by a magnetic stirrer at 21-23° C. n-Butanol was added 10 μl wise.
30.57 mg efavirenz was weighed into a 10 ml glass vial containing a 1 cm magnetic bar. 50 μl water saturated n-butanol (achieved from example 4) was added and the dispersion was stirred at ˜300 to 500 rpm by a magnetic stirrer at 21-23° C. Water saturated n-butanol was added 10 μl wise till 250 μl. After 250 μl, 25 μl wise addition was used.
31.35 mg efavirenz was weighed into a 10 ml glass vial containing a 1 cm magnetic bar. 50 μl 25% aqueous NaCl solution saturated n-butanol (achieved from example 6) was added and the dispersion was stirred at ˜300 to 500 rpm by a magnetic stirrer at 21-23° C. […]

[1] = Telmisartan release profile, dissolution test using USP II dissolution tester, acetate buffer pH 4.0, 2 h; format: physicochemical; details: acetate buffer pH 4.0, USP II
Protocol: FIG. 2), Telmisartan release profile was analyzed by a dissolution test using a USP II dissolution tester (ERWEKA GmbH, Langen, Germany) at pH 4.0 acetate buffer for 2 h (shown in […]

solubility (physchem) [mg/mL]	Release of Telmisartan ([1]; time 0 min) [%]	Release of Telmisartan ([1]; time 5 min) [%]	Release of Telmisartan ([1]; time 10 min) [%]	Release of Telmisartan ([1]; time 15 min) [%]	Release of Telmisartan ([1]; time 30 min) [%]	Release of Telmisartan ([1]; time 45 min) [%]	Release of Telmisartan ([1]; time 60 min) [%]	Release of Telmisartan ([1]; time 90 min) [%]	Release of Telmisartan ([1]; time 120 min) [%]	Structure (SMILES)
22 (≈ 57.7 mM)	–	–	–	–	–	–	–	–	–	Cc1ccc(-c2cc(C(F)(F)F)nn2-c2ccc(S(N)(=O)=O)cc2)cc1 [Celecoxib, celecoxib]
–	0.040	0.081	0.148	0.185	0.240	0.613	0.310	0.671	0.343	CCCc1nc2c(C)cc(-c3nc4ccccc4n3C)cc2n1Cc1ccc(-c2ccccc2C(=O)O)cc1 [Telmisartan pure active, Telmisartan]
